According to PubChem BioAssay (NCI):
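Following 48 hours of exposure in 96-well plates, responses at five concentrations were used to interpolate endpoints linearly. At the TGI there is no net growth.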

Assays:
Test in all cases: growth of human tumour cells (NCI), 48 h
COLO 205 colon = test system: COLO 205 colon
MCF7 breast = test system: MCF7 breast
MDA-MB-435 = test system: MDA-MB-435
KM12 colon = test system: KM12 colon
HCT-15 colon = test system: HCT-15 colon
SW-620 colon = test system: SW-620 colon
EKVX NSCLC = test system: EKVX NSCLC
K-562 leukemia = test system: K-562 leukemia
LOX IMVI melanoma = test system: LOX IMVI melanoma
A498 renal = test system: A498 renal
OVCAR-4 ovarian = test system: OVCAR-4 ovarian
SF-539 CNS = test system: SF-539 CNS
SR leukemia = test system: SR leukemia
MALME-3M melanoma = test system: MALME-3M melanoma
IGROV1 ovarian = test system: IGROV1 ovarian
HCT-116 colon = test system: HCT-116 colon
NCI-H522 lung = test system: NCI-H522 lung
U251 CNS = test system: U251 CNS
MDA-N = test system: MDA-N
HOP-92 NSCLC = test system: HOP-92 NSCLC
HT29 colon = test system: HT29 colon
M14 melanoma = test system: M14 melanoma
TK-10 renal = test system: TK-10 renal
HOP-62 NSCLC = test system: HOP-62 NSCLC
OVCAR-5 ovarian = test system: OVCAR-5 ovarian
SNB-75 CNS = test system: SNB-75 CNS
RXF 393 renal = test system: RXF 393 renal
SK-MEL-2 melanoma = test system: SK-MEL-2 melanoma
NCI/ADR-RES ovarian = test system: NCI/ADR-RES ovarian
CAKI-1 renal = test system: CAKI-1 renal
MDA-MB-231 breast = test system: MDA-MB-231 breast
NCI-H460 lung = test system: NCI-H460 lung
SK-OV-3 ovarian = test system: SK-OV-3 ovarian
HS 578T breast = test system: HS 578T breast
OVCAR-8 ovarian = test system: OVCAR-8 ovarian
SN12C renal = test system: SN12C renal
HL-60(TB) leukemia = test system: HL-60(TB) leukemia
SK-MEL-5 melanoma = test system: SK-MEL-5 melanoma
RPMI-8226 leukemia = test system: RPMI-8226 leukemia
OVCAR-3 ovarian = test system: OVCAR-3 ovarian
UO-31 renal = test system: UO-31 renal
BT-549 breast = test system: BT-549 breast
T-47D breast = test system: T-47D breast
SF-268 CNS = test system: SF-268 CNS
MOLT-4 leukemia = test system: MOLT-4 leukemia
SK-MEL-28 melanoma = test system: SK-MEL-28 melanoma
SF-295 CNS = test system: SF-295 CNS
NCI-H23 lung = test system: NCI-H23 lung
A549 NSCLC = test system: A549 NSCLC
PC-3 prostate = test system: PC-3 prostate
DU-145 prostate = test system: DU-145 prostate
UACC-62 melanoma = test system: UACC-62 melanoma
SNB-19 CNS = test system: SNB-19 CNS
ACHN renal = test system: ACHN renal
UACC-257 melanoma = test system: UACC-257 melanoma
786-0 renal = test system: 786-0 renal
NCI-H226 lung = test system: NCI-H226 lung
CCRF-CEM leukemia = test system: CCRF-CEM leukemia

Measured: TGI

COCCOc1nc(-c2ccccc2)nc2ccccc12
45.5 µM: RPMI-8226 leukemia
90 µM: M14 melanoma
73 µM: HS 578T breast
60.9 µM: SR leukemia
43.3 µM: HCT-15 colon
70.4 µM: MOLT-4 leukemia
88.3 µM: SK-MEL-5 melanoma
62 µM: NCI-H460 lung
70 µM: A498 renal
87.6 µM: HOP-92 NSCLC
30.6 µM: RXF 393 renal
not listed: 786-0 renal | NCI-H226 lung | CCRF-CEM leukemia
> 100 µM: all other assays above

S=C1Nc2cnc3ccccc3c2SC1c1ccccc1 (stereo not drawn)
99.4 µM: RXF 393 renal
not listed: SW-620 colon | A498 renal | SF-539 CNS | HOP-92 NSCLC | SK-MEL-2 melanoma | CCRF-CEM leukemia
> 100 µM: all other assays above

C/C(=N\Nc1nc2ccccc2o1)c1ccc2ccccc2n1
59.9 µM: HCT-15 colon
63.5 µM: OVCAR-8 ovarian
5.77 µM: CCRF-CEM leukemia
56.5 µM: SF-295 CNS
3.93 µM: CAKI-1 renal
30.6 µM: NCI-H460 lung
52.5 µM: MALME-3M melanoma
5.59 µM: OVCAR-4 ovarian
4.94 µM: PC-3 prostate
6.47 µM: HL-60(TB) leukemia
3.87 µM: T-47D breast
3.72 µM: SR leukemia
37.3 µM: DU-145 prostate
58.7 µM: HOP-62 NSCLC
5.83 µM: NCI-H522 lung
6.41 µM: RPMI-8226 leukemia
8.64 µM: A498 renal
45.7 µM: 786-0 renal
20.1 µM: HCT-116 colon
15.2 µM: SK-MEL-2 melanoma
44.4 µM: UACC-62 melanoma
28 µM: SNB-75 CNS
49.2 µM: SF-268 CNS
56.8 µM: SN12C renal
68.5 µM: TK-10 renal
95.9 µM: HT29 colon
9.23 µM: EKVX NSCLC
26.5 µM: NCI/ADR-RES ovarian
87.2 µM: U251 CNS
70.7 µM: NCI-H23 lung
14.3 µM: SK-MEL-5 melanoma
14.4 µM: UO-31 renal
57.5 µM: RXF 393 renal
10.6 µM: ACHN renal
3.03 µM: OVCAR-3 ovarian
5.32 µM: IGROV1 ovarian
not listed: HOP-92 NSCLC | NCI-H226 lung
> 100 µM: all other assays above
